Several values for one entry are separate records, joined by “and”; a condition that tells them apart may be missing. Equal entries are not always repeated. Toxic doses and inconclusive results are not listed.
Tested on: P388 leukemia ip, CD2F1 mice, survival T/C
Assay: NCI In Vivo Anticancer Drug Screen. Data for tumor model P388 Leukemia (intraperitoneal) in CD2F1 (CDF1) mice
Conditions: endpoint: median survival time, higher = longer survival
Method in brief: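 Mice carrying the transplanted tumor received test compound or vehicle. Survival was recorded in each group, and the value is the treated-group measurement divided by that of the vehicle-treated control group.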

[1] = dose: 6.25 mg/kg/injection, schedule: Q01DX009 (ip), vehicle: saline with Tween-80
[2] = dose: 12.5 mg/kg/injection, schedule: Q01DX009 (ip), vehicle: saline with Tween-80
[3] = dose: 25.0 mg/kg/injection, schedule: Q01DX009 (ip), vehicle: saline with Tween-80
[4] = dose: 50.0 mg/kg/injection, schedule: Q01DX009 (ip), vehicle: saline with Tween-80
[5] = dose: 100.0 mg/kg/injection, schedule: Q01DX009 (ip), vehicle: saline with Tween-80
[6] = dose: 200.0 mg/kg/injection, schedule: Q01DX009 (ip), vehicle: saline with Tween-80
[7] = dose: 50.0 mg/kg/injection, schedule: Q01DX005 (ip), vehicle: Klucel (hydroxypropylcellulose) (HPC)
[8] = dose: 100.0 mg/kg/injection, schedule: Q01DX005 (ip), vehicle: Klucel (hydroxypropylcellulose) (HPC)
[9] = dose: 200.0 mg/kg/injection, schedule: Q01DX005 (ip), vehicle: Klucel (hydroxypropylcellulose) (HPC)
[10] = dose: 50.0 mg/kg/injection, schedule: Q01DX009 (ip), vehicle: saline
[11] = dose: 50.0 mg/kg/injection, schedule: Q04DX003 (ip), vehicle: saline with Tween-80
[12] = dose: 60.0 mg/kg/injection, schedule: Q01DX005 (ip), vehicle: Klucel + Tween-80
[13] = dose: 50.0 mg/kg/injection, schedule: Q01DX005 (ip), vehicle: saline with Tween-80
[14] = dose: 100.0 mg/kg/injection, schedule: Q01DX005 (ip), vehicle: saline with Tween-80
[15] = dose: 200.0 mg/kg/injection, schedule: Q01DX005 (ip), vehicle: saline with Tween-80
[16] = dose: 100.0 mg/kg/injection, schedule: Q04DX003 (ip), vehicle: saline with Tween-80
[17] = dose: 200.0 mg/kg/injection, schedule: Q04DX003 (ip), vehicle: saline with Tween-80

Cc1c(C(=N)C(C#N)C#N)c(=N)oc2c1ccc1ccccc12
T/C [1]: 94 % of control and 97 % of control | T/C [2]: 86 % of control and 96 % of control | T/C [3]: 115 % of control and 87 % of control and 95 % of control | T/C [4]: 123 % of control and 94 % of control (2×) | T/C [5]: 100 % of control and 92 % of control | T/C [6]: 116 % of control

CC(C)CS(=O)(=O)c1ncnc2nc[nH]c12
T/C [7]: 102 % of control | T/C [8]: 97 % of control | T/C [9]: 91 % of control

COc1cc(C)c(C(=O)Oc2cc(C)c(C(=O)O)c(O)c2)c(O)c1
T/C [10]: 90 % of control | T/C (dose: 100.0 mg/kg/injection, schedule: Q01DX009 (ip), vehicle: saline): 95 % of control

CCOc1c(Cc2ccccc2)c(=O)n2c3ccccc3n(CC)c2c1C#N
T/C (dose: 7.5 mg/kg/injection, schedule: Q01DX005 (ip), vehicle: saline with Tween-80): 100 % of control | T/C (dose: 15.0 mg/kg/injection, schedule: Q01DX005 (ip), vehicle: saline with Tween-80): 102 % of control | T/C (dose: 30.0 mg/kg/injection, schedule: Q01DX005 (ip), vehicle: saline with Tween-80): 101 % of control

O=S1(=O)CC(N2CCCCC2)C2=C(O1)c1ccccc1SC2 (centres undefined)
T/C [4]: 88 % of control | T/C [5]: 92 % of control

O=NN(CC1(O)OCC(O)C(O)C1O)C(Cc1ccccc1)C(=O)O (centres undefined)
T/C (dose: 50.0 mg/kg/injection, schedule: Q01DX005 (ip), vehicle: saline): 104 % of control | T/C (dose: 100.0 mg/kg/injection, schedule: Q01DX005 (ip), vehicle: saline): 103 % of control | T/C (dose: 200.0 mg/kg/injection, schedule: Q01DX005 (ip), vehicle: saline): 97 % of control

CCCCCCCCCCCCC1(O)OC(=O)C(C)=C1C (centres undefined)
T/C (dose: 12.5 mg/kg/injection, schedule: Q04DX003 (ip), vehicle: saline with Tween-80): 108 % of control | T/C (dose: 25.0 mg/kg/injection, schedule: Q04DX003 (ip), vehicle: saline with Tween-80): 102 % of control | T/C [11]: 106 % of control

c1cc2c3c(cccc3c1)NN=N2
T/C [12]: 106 % of control | T/C (dose: 120.0 mg/kg/injection, schedule: Q01DX005 (ip), vehicle: Klucel + Tween-80): 99 % of control | T/C (dose: 240.0 mg/kg/injection, schedule: Q01DX005 (ip), vehicle: Klucel + Tween-80): 96 % of control

Cc1ccnc(N=C2N=C(Nc3cc(C)ccn3)c3ccccc32)c1
T/C [1]: 93 % of control | T/C [2]: 88 % of control | T/C [3]: 99 % of control | T/C [5]: 91 % of control | T/C [6]: 90 % of control

CCOC(=O)C(NC(=O)OC(C)(C)C)C(C)C (centres undefined)
T/C [13]: 98 % of control | T/C [14]: 100 % of control | T/C [15]: 100 % of control

COC1C(CO)OC(n2cnc3c(=S)nc(N)[nH]c32)C1O (centres undefined)
T/C [5]: 122 % of control | T/C (dose: 264.0 mg/kg/injection, schedule: Q04DX003 (ip), vehicle: saline with Tween-80): 109 % of control

C/C(=C\CCC(C)C1CCC2(C)C3=C(CCC12C)C1(C)CCC(O)C(C)(C)C1CC3)C(=O)O (centres undefined)
T/C (dose: 12.5 mg/kg/injection, schedule: Q01DX005 (ip), vehicle: DMSO): 103 % of control | T/C (dose: 25.0 mg/kg/injection, schedule: Q01DX005 (ip), vehicle: DMSO): 101 % of control | T/C (dose: 50.0 mg/kg/injection, schedule: Q01DX005 (ip), vehicle: DMSO): 88 % of control | T/C (dose: 100.0 mg/kg/injection, schedule: Q01DX005 (ip), vehicle: DMSO): 91 % of control

O=C(Nc1ccc(C2=NCCN2)cc1)c1ccc(C(=O)Nc2ccc(C3=NCCN3)cc2)c(Cl)c1
T/C (dose: 0.2 mg/kg/injection, schedule: Q01DX009 (ip), vehicle: saline with Tween-80): 99 % of control | T/C (dose: 0.39 mg/kg/injection, schedule: Q01DX009 (ip), vehicle: saline with Tween-80): 117 % of control | T/C (dose: 0.78 mg/kg/injection, schedule: Q01DX009 (ip), vehicle: saline with Tween-80): 122 % of control | T/C (dose: 20.0 mg/kg/injection, schedule: Q01DX010 (ip), vehicle: water): 163 % of control | T/C (dose: 45.0 mg/kg/injection, schedule: Q04DX003 (ip), vehicle: saline): 95 % of control

COc1ccc2nc(CC(=N)c3ccc(N(C)C)cc3)ccc2c1
T/C [13]: 89 % of control | T/C [14]: 89 % of control | T/C [15]: 92 % of control

C=C[C@H]1[C@H](OC2OC(CO)C(O)C(O)C2O)OC=C2C(=O)OCC[C@H]21 (some centres undefined)
T/C (dose: 0.75 mg/kg/injection, schedule: Q01DX005 (ip), vehicle: water): 95 % of control | T/C (dose: 1.5 mg/kg/injection, schedule: Q01DX005 (ip), vehicle: water): 95 % of control | T/C (dose: 3.0 mg/kg/injection, schedule: Q01DX005 (ip), vehicle: water): 93 % of control | T/C (dose: 6.0 mg/kg/injection, schedule: Q01DX005 (ip), vehicle: water): 93 % of control

Cn1cc(C#N)c(=O)[nH]c1=O
T/C [7]: 101 % of control | T/C [8]: 98 % of control | T/C [9]: 104 % of control

CCC(C)c1cnc(CC(C)C)c(=O)n1O (centres undefined)
T/C [1]: 90 % of control | T/C [2]: 91 % of control | T/C [3]: 94 % of control | T/C [4]: 100 % of control

CCCNC(=S)N/N=C(/C)CC/C(C)=N/NC(=S)NCCC
T/C (dose: 12.5 mg/kg/injection, schedule: Q01DX009 (ip), vehicle: saline): 98 % of control | T/C (dose: 25.0 mg/kg/injection, schedule: Q01DX009 (ip), vehicle: saline): 99 % of control | T/C [10]: 104 % of control and 86 % of control

CC1(C)CCC[C@](C)(O)C2CCC=CC21 (some centres undefined)
T/C (dose: 100.0 mg/kg/injection, schedule: Q04DX002 (ip), vehicle: Klucel (hydroxypropylcellulose) (HPC)): 106 % of control | T/C (dose: 200.0 mg/kg/injection, schedule: Q04DX002 (ip), vehicle: Klucel (hydroxypropylcellulose) (HPC)): 104 % of control | T/C (dose: 400.0 mg/kg/injection, schedule: Q04DX002 (ip), vehicle: Klucel (hydroxypropylcellulose) (HPC)): 114 % of control

N#CC1=CN=C2C=CC=C3N=C(C(Cl)(Cl)Cl)N=C1N32
T/C (dose: 15.0 mg/kg/injection, schedule: Q01DX005 (ip), vehicle: Klucel + Tween-80): 92 % of control | T/C (dose: 30.0 mg/kg/injection, schedule: Q01DX005 (ip), vehicle: Klucel + Tween-80): 87 % of control | T/C [12]: 93 % of control

COc1ccc(NC2=NCCS2)cc1
T/C [11]: 100 % of control | T/C [16]: 100 % of control | T/C [17]: 100 % of control

CNC(=O)Sc1ccc(C)c(N(C)C)c1
T/C [13]: 111 % of control and 117 % of control | T/C [14]: 120 % of control

COc1cccc2c1C(=O)c1c(O)c3c(c(O)c1C2=O)CC(O)(c1csc(N)n1)CC3O (centres undefined)
T/C (dose: 1.56 mg/kg/injection, schedule: Q01DX009 (ip), vehicle: other): 100 % of control | T/C (dose: 3.13 mg/kg/injection, schedule: Q01DX009 (ip), vehicle: other): 107 % of control | T/C (dose: 6.25 mg/kg/injection, schedule: Q01DX009 (ip), vehicle: other): 101 % of control | T/C (dose: 12.5 mg/kg/injection, schedule: Q01DX009 (ip), vehicle: other): 108 % of control | T/C (dose: 25.0 mg/kg/injection, schedule: Q01DX009 (ip), vehicle: other): 107 % of control | T/C (dose: 50.0 mg/kg/injection, schedule: Q01DX009 (ip), vehicle: other): 108 % of control

CC(C)SC(=O)C[Si](C)(C)C
T/C [11]: 98 % of control and 101 % of control | T/C [16]: 101 % of control and 104 % of control | T/C [17]: 103 % of control and 105 % of control | T/C (dose: 400.0 mg/kg/injection, schedule: Q04DX003 (ip), vehicle: saline with Tween-80): 98 % of control

CCc1cccc(CC)c1NC1=C(Cl)C(=O)c2ccccc2C1=O
T/C (dose: 60.0 mg/kg/injection, schedule: Q01DX005 (ip), vehicle: saline with Tween-80): 100 % of control | T/C (dose: 120.0 mg/kg/injection, schedule: Q01DX005 (ip), vehicle: saline with Tween-80): 94 % of control | T/C (dose: 240.0 mg/kg/injection, schedule: Q01DX005 (ip), vehicle: saline with Tween-80): 104 % of control

CCOc1ccc(/C=N/NC(=O)c2ccccc2NC(=O)c2ccccc2Cl)cc1OC
T/C (dose: 30.0 mg/kg/injection, schedule: Q01DX005 (ip), vehicle: Klucel (hydroxypropylcellulose) (HPC)): 101 % of control | T/C (dose: 60.0 mg/kg/injection, schedule: Q01DX005 (ip), vehicle: Klucel (hydroxypropylcellulose) (HPC)): 101 % of control and 90 % of control | T/C (dose: 120.0 mg/kg/injection, schedule: Q01DX005 (ip), vehicle: Klucel (hydroxypropylcellulose) (HPC)): 101 % of control | T/C (dose: 240.0 mg/kg/injection, schedule: Q01DX005 (ip), vehicle: Klucel (hydroxypropylcellulose) (HPC)): 91 % of control

Reference: PubChem BioAssay AID330 (DTP/NCI, 2004)
